Read-outs that look alike come from different tables or passages of the source.
Key:
[1] = system: Isolated Swine Adipocytes; experiment: Stimulation of lipolysis (glycerol production) in isolated swine adipocytes; type: cell-based; details: for activation at 0.01 µM / activation at 0.05 µM / activation at 0.25 µM: Sus scrofa, Adipocyte, 2 h, read-out: percent increase compared to control, glycerol production
Experimental: (§1) Fat was collected from freshly killed animals as follows: epididymal and perirenal fat from 150 to 200 g male rates; perirenal fat from 20 to 25 kg whether lambs, and perirenal and omental fat from 35 to 50 kg gilts. Immediately after collection, fat was placed in a siliconized beaker (all glassware was siliconized) containing Krebs-Ringer bicarbonate solution (KRB; pH 7.4) at 37° C. Fat was transferred to a clean beaker and finely chopped with scissors. Chopped fat was then used as such (whole adipose preparation) or treated with collagenase (isolated adipocytes).
(§2) Chopped fat was placed in a shaker containing 70 ml cell dispersion medium (CDM; 5 mM glucose, 0.1% collagenase, 4% bovine serum albumin (BSA), in KRB) and incubated at 37° C. for 1 hour with gentle shaking. Fat was then filtered to remove clumps and washed 4 times with washing medium (WM; 2.5 mM glucose, 1% BSA, in KRB) and 1 time with final suspension medium (FSM; 2.5 mM glucose, 2% essentially fatty acid free BSA, in KRB). Isolated adipocytes were then resuspended in the required amount of FSM (1 ml/flask, 3 flasks/treatment).
(§3) Whole adipose tissue from the rat (0.3 ml) or isolated adipocytes from sheep or swine (1 ml) were placed in plastic scintillation vials containing FSM (1.7 or 1 ml, respectively) and test compounds, and incubated at 37° C. for 2 hours. […] Isoproterenol, at the same concentrations, was used as a positive control. After incubation, media was removed and assayed for glycerol by a fluorometric modification of the method of Wieland (1974. Glycerol UV-method. pp. 1404. In: Bergmeyer (Ed.) Methods of Enzymatic Analysis. Verlag Chemie Weinham, Academic Press, New York).

[2] = system: Isolated Chicken Hepatocytes; experiment: Inhibition of lipogenesis (14C acetate incorporation) in isolated chicken hepatocytes; type: cell-based; details: for inhibition at 0.01 µM / inhibition at 0.05 µM / inhibition at 0.25 µM: Gallus gallus, Hepatocyte, 2 h, read-out: percent change compared to control, 14C acetate incorporation in fatty acids; for percent change compared to control, 14C acetate incorporation in fatty acids: 120 min
Experimental: Determination of anti-lipogenic activity in hepatocytes
Hepatocytes were isolated from chicken liver using the procedure for adipocytes and incubated for 2 hours at 37° C. in the presence of ^14 C acetate and test compounds. […] Isoproterenol, at the same concentrations, was used as a positive control. After incubation, 8 ml Doles reagent (isopropanol:hexane:H2 SO4, 40:10:1) was added and incubation vials were shaken at room temperature for 30 minutes. Vial contents were poured into 50 ml screw-cap tubes. Vials were then rinsed with 6 ml hexane which was poured into the appropriate 50 ml tube. Tubes were shaken by hand, 10 ml H2 O was added, and tubes were shaken again. After phase separation, 2 ml of the upper (hexane) phase was removed to scintillation vials. Hexane was evaporated by a gentle air flow and the remaining lipids were resuspended in 10 ml Scinti Verse II. ^14 C was counted in a Packard liquid scintillation counter. Data are reported as CPM of ^14 C acetate incorporated into total lipids.

[3] = system: Isolated Ovine Adipocytes; experiment: Stimulation of lipolysis (glycerol production) in isolated ovine adipocytes; type: cell-based, sheep; details: for activation at 0.01 µM / activation at 0.05 µM / activation at 0.25 µM: Ovis aries, Adipocyte, 2 h, read-out: percent increase compared to control, glycerol production
Experimental: as §1, §2, §3

[4] = system: Rat Adipose Tissue; experiment: Stimulation of lipolysis (glycerol production) in chopped rat adipose tissue; type: cell-based; details: for activation at 0.01 µM / activation at 0.05 µM / activation at 0.25 µM: Rattus norvegicus, 2 h, read-out: percent increase compared to control, glycerol production
Experimental: as §1
as §3, with “York). […]” for “York).”

[5] = In vivo testing in rats: growth, feed conversion and carcass composition; parameters: species or system rat (male Charles River CD); details: in diet, dose equivalent to 20 ppm clenbuterol (clenbuterol: 10)
Source text: Eighty intact, male Charles River CD rats, 75-90 g, were housed and maintained on rat chow and water ad libitum. After four days acclimation ten rats per group were randomized by weight to treatment and pen. Compounds to be tested were premixed and added to ground rat chow using doses equivalent to 20 ppm of clenbuterol on a molecular weight basis. It had previously been determined 10 ppm of clenbuterol was the minimum dose needed to give maximum improvements in gain and feed conversion. Therefore, the results of any compound tested should cause responses similar to clenbuterol if the compound has half or more the activity of clenbuterol.

## CC(C)NCC(O)c1ccc(O)c(O)c1 (centres unmarked) [Isoproterenol]
[1]; Test 1, 0.01 μM
  activation at 0.01 µM: 40%
[1]; Test 1, 0.05 μM
  activation at 0.05 µM: 140%
[1]; Test 1, 0.25 μM
  activation at 0.25 µM: 660%
[1]; Test 2, 0.01 μM
  activation at 0.01 µM: 175%
[1]; Test 2, 0.05 μM
  activation at 0.05 µM: 196%
[1]; Test 2, 0.25 μM
  activation at 0.25 µM: 820%
[2]; Test 1, 0.01 μM
  inhibition at 0.01 µM: 29.1%
[2]; Test 1, 0.05 μM
  inhibition at 0.05 µM: 48.6%
[2]; Test 1, 0.25 μM
  inhibition at 0.25 µM: 70.3%
[2]; Test 2, 0.01 μM
  inhibition at 0.01 µM: 21%
[2]; Test 2, 0.05 μM
  inhibition at 0.05 µM: 15%
[2]; Test 2, 0.25 μM
  inhibition at 0.25 µM: 49%
[3]; Test 1, 0.01 μM
  activation at 0.01 µM: 670%
[3]; Test 2, 0.01 μM
  activation at 0.01 µM: 600%
[4]; Test 1, 0.01 μM
  activation at 0.01 µM: 45%
[4]; Test 1, 0.05 μM
  activation at 0.05 µM: 173%
[4]; Test 1, 0.25 μM
  activation at 0.25 µM: 290%
[4]; Test 2, 0.01 μM
  activation at 0.01 µM: 49%
[4]; Test 2, 0.05 μM
  activation at 0.05 µM: 154%
[4]; Test 2, 0.25 μM
  activation at 0.25 µM: 216%

## Cn1c(=O)c2c(ncn2CCCNCC(O)c2cc(O)cc(O)c2)n(C)c1=O (centres unmarked) [VI, Reproterol]
[5]; Test 2, control 7.5
  Gain: 8.3 g/day
[5]; Test 2, control 19.3
  Feed Intake: 21.2 g/day
[5]; Test 2, control 202.3
  Weight: 213.4 g
[5]; Test 2
  Carcass Composition % of Change over Control, Fat: 2.5%
  Carcass Composition % of Change over Control, Protein: 0.5%
[1]; Test 1, 0.01 μM
  activation at 0.01 µM: 20%
[1]; Test 1, 0.05 μM
  activation at 0.05 µM: -7%
[1]; Test 1, 0.25 μM
  activation at 0.25 µM: 0%
[1]; Test 2, 0.01 μM
  activation at 0.01 µM: 8%
[1]; Test 2, 0.05 μM
  activation at 0.05 µM: 21%
[1]; Test 2, 0.25 μM
  activation at 0.25 µM: 3%
[2]; Test 1, 0.01 μM
  inhibition at 0.01 µM: 0%
[2]; Test 1, 0.05 μM
  inhibition at 0.05 µM: 0%
[2]; Test 1, 0.25 μM
  inhibition at 0.25 µM: 8.6%
[2]; Test 2, 0.01 μM
  inhibition at 0.01 µM: -3%
[2]; Test 2, 0.05 μM
  inhibition at 0.05 µM: 12%
[2]; Test 2, 0.25 μM
  inhibition at 0.25 µM: 25%
[3]; Test 1, 0.05 μM
  activation at 0.05 µM: 130%
[3]; Test 1, 0.25 μM
  activation at 0.25 µM: 465%
[3]; Test 2, 0.01 μM
  activation at 0.01 µM: -14%
[3]; Test 2, 0.05 μM
  activation at 0.05 µM: 129%
[3]; Test 2, 0.25 μM
  activation at 0.25 µM: 700%
[4]; Test 1, 0.01 μM
  activation at 0.01 µM: 63%
[4]; Test 1, 0.05 μM
  activation at 0.05 µM: 86%
[4]; Test 1, 0.25 μM
  activation at 0.25 µM: 86%
[4]; Test 2, 0.01 μM
  activation at 0.01 µM: 13%
[4]; Test 2, 0.05 μM
  activation at 0.05 µM: 16%
[4]; Test 2, 0.25 μM
  activation at 0.25 µM: 13%

## CC(C)(C)NCC(O)c1ccc(O)c(CO)n1 (centres unmarked) [VII, Pirbuterol]
[5]; Test 1, control 7.3
  Gain: 8.0 g/day
[5]; Test 1, control 18.6
  Feed Intake: 19.8 g/day
[5]; Test 1, control 191.8
  Weight: 200.9 g
[5]; Test 1
  Carcass Composition % of Change over Control, Fat: -8.7%
  Carcass Composition % of Change over Control, Protein: 3.6%

## CC(C)N[C@H]1CCc2c(ccc(O)c2CO)[C@@H]1O.Cl [VIII]
[5]; Test 1, control 2.55
  Feed Conversion: 2.41
[5]; Test 1, control 7.3
  Gain: 8.1 g/day
[5]; Test 1, control 18.6
  Feed Intake: 19.5 g/day
[5]; Test 1, control 191.8
  Weight: 202.6 g
[5]; Test 1
  Carcass Composition % of Change over Control, Fat: -6.1%
  Carcass Composition % of Change over Control, Protein: 6.4%
[1]; Test 1, 0.01 μM
  percent increase compared to control, glycerol production: 13%
[1]; Test 1, 0.05 μM
  percent increase compared to control, glycerol production: 147%
[1]; Test 1, 0.25 μM
  percent increase compared to control, glycerol production: 180%
[1]; Test 2, 0.01 μM
  percent increase compared to control, glycerol production: 61%
[1]; Test 2, 0.05 μM
  percent increase compared to control, glycerol production: 59%
[1]; Test 2, 0.25 μM
  percent increase compared to control, glycerol production: 460%
[2]; Test 2, 0.01 μM
  percent change compared to control, 14C acetate incorporation in fatty acids: 26%
[2]; Test 2, 0.05 μM
  percent change compared to control, 14C acetate incorporation in fatty acids: -9%
[2]; Test 2, 0.25 μM
  percent change compared to control, 14C acetate incorporation in fatty acids: -34%
[3]; Test 1, 0.01 μM
  percent increase compared to control, glycerol production: 135%
[3]; Test 1, 0.05 μM
  percent increase compared to control, glycerol production: 445%
[3]; Test 1, 0.25 μM
  percent increase compared to control, glycerol production: 565%
[3]; Test 2, 0.01 μM
  percent increase compared to control, glycerol production: 71%
[3]; Test 2, 0.05 μM
  percent increase compared to control, glycerol production: 1143%
[3]; Test 2, 0.25 μM
  percent increase compared to control, glycerol production: 1800%
[4]; Test 1, 0.01 μM
  percent increase compared to control, glycerol production: 19%
[4]; Test 1, 0.05 μM
  percent increase compared to control, glycerol production: 26%
[4]; Test 1, 0.25 μM
  percent increase compared to control, glycerol production: 21%
[4]; Test 2, 0.01 μM
  percent increase compared to control, glycerol production: -7%
[4]; Test 2, 0.05 μM
  percent increase compared to control, glycerol production: 4%
[4]; Test 2, 0.25 μM
  percent increase compared to control, glycerol production: 7%
